The nature of series [1]: Thermodynamic solubility measurement in FaSSIF pH 6.5 and SGF pH 1.6. Type of series: physicochemical. As to conditions: 37 °C, thermodynamic from solid.
Series [2] in a line: Caco-2 apparent passive permeability. Type of series: in vitro ADME. Particulars: human, Caco-2, pH 7.4. On the technique in general: Passage across Caco-2 layers is used to estimate intestinal permeability.
The conditions of series [3]: cited from earlier work.
For series [4] the following is noted: ref 36 (dabrafenib), 40 (vemurafenib), 18 (pazopanib); cited from earlier work.
The conditions of series [5]: cited from earlier work; for AUC fed/fasted ratio / Cmax fed/fasted ratio: erlotinib 150 mg.
Series [6] is described as follows: Dose-exposure proportionality in dose-escalating studies. Particulars: based on data of ref 20. It is filed as in vivo, human.
For series [7] the following is noted: BCS II/IV drugs; cited from earlier work.
For series [8] the following is noted: after oral administration; cited from earlier work.
Where [9] appears, read: SGF, pH 1.6, simulated gastric fluid.
[10] abbreviates: single dose, crizotinib 50-300, trametinib 0.125-10, dabrafenib 12-300, gefitinib 50-500 (HV), vemurafenib 240-960, pazopanib 50-2,000 mg.

Converted amounts (≈) assume the structure as drawn. Counter-ions that a name gives are not always drawn. Like-named read-outs stand apart in the source and are kept apart here.

As usually defined, the solubility is the dissolved amount per volume that the medium holds. What is called Papp is a coefficient for how fast a substance crosses the barrier.

`CCCS(=O)(=O)Nc1ccc(F)c(C(=O)c2c[nH]c3ncc(-c4ccc(Cl)cc4)cc23)c1F` [Vemurafenib, vemurafenib]: the solubility at 24 h was 5.4 µg/mL (≈ 11 µM) in series [1] (FaSSIF, pH 6.5, fassif) and 0.3 µg/mL (≈ 0.612 µM) in series [1] (setting [9]). Moreover, the Papp in series [2] was 0.11 ×10⁻⁶ cm/s. The “Increase in exposure (dose-exposure proportionality)” value (from here on “Increase in exposure”) in series [3] (setting [10]) is reported as “Dose proportional Dose proportional40”.

On to `Cc1ccc(Nc2nccc(N(C)c3ccc4c(C)n(C)nc4c3)n2)cc1S(N)(=O)=O` [Pazopanib, pazopanib hydrochloride (HCl)], for which the solubility at 24 h was 1.2 µg/mL in series [1] (FaSSIF, pH 6.5, fassif) and 1080 µg/mL in series [1] (setting [9]). Besides, the Papp in series [2] was determined as 28.5 ×10⁻⁶ cm/s. Moreover, in series [3] (setting [10]), the “Increase in exposure” value was “Less than proportional Less than proportional18”. For the same molecule, the “pKa values (acidic)” value in series [4] is reported as 10.218.

As to `CS(=O)(=O)CCNCc1ccc(-c2ccc3ncnc(Nc4ccc(OCc5cccc(F)c5)c(Cl)c4)c3c2)o1` [Lapatinib, lapatinib ditosylate monohydrate], the solubility at 24 h in series [1] (FaSSIF, pH 6.5, fassif) is 35 µg/mL; in series [1] (setting [9]), 5.5 µg/mL. In addition, the Papp in series [2] worked out at 0.21 ×10⁻⁶ cm/s.

The molecule `COc1cc2ncnc(Nc3ccc(F)c(Cl)c3)c2cc1OCCCN1CCOCC1` [Gefitinib, gefitinib] came in with a solubility at 24 h in series [1] (FaSSIF, pH 6.5, fassif) of 88.7 µg/mL (≈ 198 µM). Moreover, in series [2], the Papp is 10.4 ×10⁻⁶ cm/s. The “Increase in exposure” value in series [3] (setting [10]) was “Dose proportional”.

With `CC(=O)Nc1cccc(-n2c(=O)n(C3CC3)c(=O)c3c(Nc4ccc(I)cc4F)n(C)c(=O)c(C)c32)c1` [Trametinib, trametinib *DMSO solvate], the Papp in series [2] was found to be 15.4 ×10⁻⁶ cm/s. For the same molecule, the “Increase in exposure” value in series [3] (setting [10]) is listed as “More than proportional (Cmax proportional)24”. The food effect result in series [5] (poorly water-soluble anticancer drugs) is recorded as “only a modest food effect, if any”.

As for `C[C@@H](Oc1cc(-c2cnn(C3CCNCC3)c2)cnc1N)c1c(Cl)ccc(F)c1Cl` [Crizotinib], the concentration in solution in series [1] (FaSSIF, pH 6.5, fassif) (solubility at 24 h) was 743 µg/mL (≈ 1650 µM). For the same molecule, the Papp in series [2] was 15.3 ×10⁻⁶ cm/s. Also, the “dose proportionality of single-dose PK in the authors' assessment” value in series [6] is listed as “linear”. Further, in series [3] (setting [10]), the “Increase in exposure” value is “Less than proportional”.

For the molecule `O=C1NC(=O)C(c2ccccc2)(c2ccccc2)N1` [phenytoin], the “absolute bioavailability (F)” value in series [7] is reported as over 90%.

Regarding `CC(C)(C)c1nc(-c2cccc(NS(=O)(=O)c3c(F)cccc3F)c2F)c(-c2ccnc(N)n2)s1` [Dabrafenib, Dabrafenib mesylate], the solubility at 24 h in series [1] (FaSSIF, pH 6.5, fassif) was 3.7 µg/mL; in series [1] (setting [9]), 11.7 µg/mL. Besides, in series [2], the Papp came to 12.4 ×10⁻⁶ cm/s. The “Increase in exposure” value in series [3] (setting [10]) is “Dose proportional”.

As for `C#Cc1cccc(Nc2ncnc3cc(OCCOC)c(OCCOC)cc23)c1` [Erlotinib, erlotinib HCl], the solubility at 24 h is 12.4 µg/mL in series [1] (FaSSIF, pH 6.5, fassif) and 166 µg/mL in series [1] (setting [9]). Further, in series [2], the apparent permeability coefficient (Papp) worked out at 40.4 ×10⁻⁶ cm/s. The “Increase in exposure” value in series [3] (dosing schedule N.A., imatinib 25-1,000 mg, erlotinib 100-1,000 mg) is listed as “Dose proportional38”. Further, the AUC fed/fasted ratio in series [5] (first value (first period)) is recorded as 1.97; in series [5] (second value (second period)), 0.93. Also, the Cmax fed/fasted ratio in series [5] (first value (first period)) was 1.57; in series [5] (second value (second period)) it was 1.15. Moreover, in series [8], the “dose as parent drug in the feces” value is given as 1 % of the dose.

The record behind these values is article PMC7158207 (Clinical Pharmacology and Therapeutics, 2019).
